Seven compounds from patent publication US8551937B2, “Peptide having an extending action for half-life of object peptide in plasma” (priority 2008, dated 2013) can be followed below.

The term half-life denotes how long it takes for the measured level to halve.

Where a SMILES comes first, the peptide text is derived from it. Bridges are numbered along the chain shown (N, C = ends). Where no end group is shown, it is not given here.

Data set [1] can be described thus: in vivo. As to conditions: male, SD, rat, iv, 10 nmol/kg. How it is done: The experiment was carried out using rats into which polyethylene tube (PE-50 manufactured by Clay Adams) was previously inserted into thigh artery under an anesthetized condition with Nembutal. As to a test system, male SD strain rats (Nippon Charles River) of 7 weeks age were used where one group comprised 3 rats. Native CNP-22 or chimeric CNP in a dose of 10 nmol/kg was administered into tail vein of the rat and the blood before the administration and until 60 minutes after the administration was collected by a polyethylene tube inserted into the thigh artery. To the collected blood were added EDTA (manufactured by Dojin Laboratories) and aprotinin (manufactured by Bayer) as a stabilizer and an anti-coagulant, respectively and the plasma was separated therefrom by centrifugal separation. CNP immunoreactivity concentration in plasma was measured by a competitive radioimmunoassay (RIA). At that time, a rabbit polyclonal antibody (#2) which specifically recognizes the ring partial structure of the native CNP-22 was used as an antibody and, as a labeled compound, ^125I-[Tyr^0] CNP was used.

The nature of data set [2]: in vivo. The conditions noted are these: rat, iv. As for the experimental part:
Changes in CNP immunoreactivity concentration in plasma when the native CNP-22 shown by SEQ ID No: 101 was administered either solely or jointly with neutral endo-peptidase (NEP) inhibitor and compared with changes in CNP immunoreactivity concentration in plasma when native CNP-53 (SEQ ID No: 159) and the chimeric CNP (D) (structure mentioned already) were intravenously administered.
The experiment was conducted using rats where polyethylene tube (PE-50, manufactured by Clay Adams) was previously inserted into thigh artery under the anesthetized condition with Nembutal. In the group where the native CNP-22 was administered either solely or jointly with an NEP inhibitor, the polyethylene tube (PE-10, manufactured by Clay Adams) was also inserted into the thigh vein. As to a test system, male SD rats (Nippon Charles River) of 7 weeks age were used where one group comprised three rats. As to the NEP inhibitor, DL-Thiorphan (manufactured by Sigma) was used and, during the period from 10 minutes before the initiation of administration of the native CNP-22 until 60 minutes after the initiation of the administration where collection of the blood finished, 5% mannitol (100 μL/min/body) or NEP inhibitor (30 μg/100 μL/min/body) was subjected to a constant-speed intravenous administration for 70 minutes using an Infusion Pump (CFV 2100, manufactured by Nippon Koden K. K.). Native CNP-22, native CNP-53 or chimeric CNP (D) was administered into tail vein in a dose of 20 nmol/kg each and blood over the time from before administration and 60 minutes after administration was collected from a polyethylene tube inserted into the thigh artery. To the collected blood were added EDTA (Dojin Laboratories) and aprotinin (manufactured by Bayer) as a stabilizer and an anti-coagulant, respectively and the plasma was separated by means of centrifugal separation. CNP immunoreactivity concentration in the plasma was measured by a competitive radioimmunoassay (RIA). At that time, a rabbit polyclonal antibody (#2) which specifically recognizes a ring part structure which is the common structure for native CNP-22 and native CNP-53 was used as an antibody while, as a labeling compound, ^125I-[Tyr^0] CNP-22 was used.

Regarding `CC[C@H](C)[C@@H]1NC(=O)[C@H](CCCNC(=N)N)NC(=O)[C@H](CC(=O)O)NC(=O)[C@H](CC(C)C)NC(=O)[C@H](CCCCN)NC(=O)[C@H](CC(C)C)NC(=O)CNC(=O)[C@H](Cc2ccccc2)NC(=O)[C@@H](NC(=O)[C@@H](NC(=O)[C@H](CCC(N)=O)NC(=O)[C@H](CCC(N)=O)NC(=O)[C@H](CCCNC(=N)N)NC(=O)[C@H](CCCCN)NC(=O)[C@H](CCC(=O)O)NC(=O)[C@H](CO)NC(=O)[C@H](CCCCN)NC(=O)[C@H](CCCCN)NC(=O)[C@@H]2CCCN2C(=O)[C@@H]2CCCN2C(=O)[C@H](C)NC(=O)[C@H](CCCCN)NC(=O)[C@H](CC(C)C)NC(=O)[C@H](CCC(N)=O)NC(=O)[C@@H]2CCCN2C(=O)[C@@H](N)CCCNC(=N)N)C(C)C)CSSC[C@@H](C(=O)O)NC(=O)CNC(=O)[C@H](CC(C)C)NC(=O)CNC(=O)[C@H](CO)NC(=O)[C@H](CCSC)NC(=O)[C@H](CO)NC(=O)CNC1=O` [Chimeric CNP (H)] (H-RPQLKAPPKKSEKRQQVCFGLKLDRIGSMSGLGC-OH; disulfide 18-34; N-terminus and C-terminus assumed), the half-life in “in vivo [1]” came out at 14.9 min.

In “in vivo [1]”, `CC[C@H](C)[C@@H]1NC(=O)[C@H](CCCNC(=N)N)NC(=O)[C@H](CC(=O)O)NC(=O)[C@H](CC(C)C)NC(=O)[C@H](CCCCN)NC(=O)[C@H](CC(C)C)NC(=O)CNC(=O)[C@H](Cc2ccccc2)NC(=O)[C@@H](NC(=O)CNC(=O)[C@H](CCCCN)NC(=O)[C@H](CO)NC(=O)[C@H](CC(C)C)NC(=O)CN)CSSC[C@@H](C(=O)N[C@H](C(=O)N[C@@H](CCC(N)=O)C(=O)N[C@@H](CCC(N)=O)C(=O)N[C@@H](CCCNC(=N)N)C(=O)N[C@@H](CCCCN)C(=O)N[C@@H](CCC(=O)O)C(=O)N[C@@H](CO)C(=O)N[C@@H](CCCCN)C(=O)N[C@@H](CCCCN)C(=O)N2CCC[C@H]2C(=O)N2CCC[C@H]2C(=O)N[C@@H](C)C(=O)N[C@@H](CCCCN)C(=O)N[C@@H](CC(C)C)C(=O)N[C@@H](CCC(N)=O)C(=O)N2CCC[C@H]2C(=O)N[C@@H](CCCNC(=N)N)C(=O)O)C(C)C)NC(=O)CNC(=O)[C@H](CC(C)C)NC(=O)CNC(=O)[C@H](CO)NC(=O)[C@H](CCSC)NC(=O)[C@H](CO)NC(=O)CNC1=O` [Chimeric CNP (D)] (H-GLSKGCFGLKLDRIGSMSGLGCVQQRKESKKPPAKLQPR-OH; disulfide 6-22; N-terminus and C-terminus assumed) showed a half-life of 20.3 min. For the same compound, the “half-life compared with native CNP-22, native CNP-22 together with NEP inhibitor and native CNP-53” value in “in vivo [2]” is on record as “longer half-life”. In the data set “in vivo [2]” (male, SD), `CC[C@H](C)[C@@H]1NC(=O)[C@H](CCCNC(=N)N)NC(=O)[C@H](CC(=O)O)NC(=O)[C@H](CC(C)C)NC(=O)[C@H](CCCCN)NC(=O)[C@H](CC(C)C)NC(=O)CNC(=O)[C@H](Cc2ccccc2)NC(=O)[C@@H](NC(=O)CNC(=O)[C@H](CCCCN)NC(=O)[C@H](CO)NC(=O)[C@H](CC(C)C)NC(=O)CNC(=O)[C@H](CCCCN)NC(=O)[C@H](CCCCN)NC(=O)[C@H](CC(N)=O)NC(=O)[C@H](C)NC(=O)CNC(=O)[C@H](CCCCN)NC(=O)[C@H](Cc2ccc(O)cc2)NC(=O)[C@H](CCCCN)NC(=O)[C@H](CCCNC(=N)N)NC(=O)[C@H](C)NC(=O)[C@H](CC(N)=O)NC(=O)[C@@H]2CCCN2C(=O)[C@H](Cc2c[nH]cn2)NC(=O)[C@H](CCC(=O)O)NC(=O)[C@H](CCC(N)=O)NC(=O)[C@H](CC(C)C)NC(=O)[C@H](CC(C)C)NC(=O)[C@H](CCCNC(=N)N)NC(=O)[C@H](C)NC(=O)[C@H](Cc2c[nH]c3ccccc23)NC(=O)[C@H](C)NC(=O)[C@H](C)NC(=O)[C@H](CCCNC(=N)N)NC(=O)[C@H](CO)NC(=O)[C@H](CCCCN)NC(=O)[C@@H](NC(=O)[C@H](CC(=O)O)NC(=O)[C@@H](NC(=O)[C@H](CCCNC(=N)N)NC(=O)[C@H](CC(C)C)NC(=O)[C@@H](N)CC(=O)O)C(C)C)[C@@H](C)O)CSSC[C@@H](C(=O)O)NC(=O)CNC(=O)[C@H](CC(C)C)NC(=O)CNC(=O)[C@H](CO)NC(=O)[C@H](CCSC)NC(=O)[C@H](CO)NC(=O)CNC1=O` [Native CNP-53] gave a half-life of 15.7 min. In the case of `CC[C@H](C)[C@@H]1NC(=O)[C@H](CCCNC(=N)N)NC(=O)[C@H](CC(=O)O)NC(=O)[C@H](CC(C)C)NC(=O)[C@H](CCCCN)NC(=O)[C@H](CC(C)C)NC(=O)CNC(=O)[C@H](Cc2ccccc2)NC(=O)[C@@H](NC(=O)[C@H](CCCNC(=N)N)NC(=O)[C@@H]2CCCN2C(=O)[C@H](CCC(N)=O)NC(=O)[C@H](CC(C)C)NC(=O)[C@H](CCCCN)NC(=O)[C@H](C)NC(=O)[C@@H]2CCCN2C(=O)[C@@H]2CCCN2C(=O)[C@H](CCCCN)NC(=O)[C@H](CCCCN)NC(=O)[C@H](CO)NC(=O)[C@H](CCC(=O)O)NC(=O)[C@H](CCCCN)NC(=O)[C@H](CCCNC(=N)N)NC(=O)[C@H](CCC(N)=O)NC(=O)[C@H](CCC(N)=O)NC(=O)[C@@H](N)C(C)C)CSSC[C@@H](C(=O)O)NC(=O)CNC(=O)[C@H](CC(C)C)NC(=O)CNC(=O)[C@H](CO)NC(=O)[C@H](CCSC)NC(=O)[C@H](CO)NC(=O)CNC1=O` [Chimeric CNP (G)] (H-VQQRKESKKPPAKLQPRCFGLKLDRIGSMSGLGC-OH; disulfide 18-34; N-terminus and C-terminus assumed), the half-life in the data set “in vivo [1]” is 17.8 min. In “in vivo [1]”, “RPQLKAPPKKSEKRQQVCFGLKLDRIGSMSGLGCVQQRKESKKPPAKLQPR (disulfide 18-34) [Chimeric CNP (F)]” registered a half-life of 17.4 min. In turn, “VQQRKESKKPPAKLQPRCFGLKLDRIGSMSGLGCVQQRKESKKPPAKLQPR (disulfide 18-34) [Chimeric CNP (E)]” gave a half-life in the data set “in vivo [1]” of 18.4 min. In the data set “in vivo [1]”, `CC[C@H](C)[C@@H]1NC(=O)[C@H](CCCNC(=N)N)NC(=O)[C@H](CC(=O)O)NC(=O)[C@H](CC(C)C)NC(=O)[C@H](CCCCN)NC(=O)[C@H](CC(C)C)NC(=O)CNC(=O)[C@H](Cc2ccccc2)NC(=O)[C@@H](N)CSSC[C@@H](C(=O)N[C@H](C(=O)N[C@@H](CCC(N)=O)C(=O)N[C@@H](CCC(N)=O)C(=O)N[C@@H](CCCNC(=N)N)C(=O)N[C@@H](CCCCN)C(=O)N[C@@H](CCC(=O)O)C(=O)N[C@@H](CO)C(=O)N[C@@H](CCCCN)C(=O)N[C@@H](CCCCN)C(=O)N2CCC[C@H]2C(=O)N2CCC[C@H]2C(=O)N[C@@H](C)C(=O)N[C@@H](CCCCN)C(=O)N[C@@H](CC(C)C)C(=O)N[C@@H](CCC(N)=O)C(=O)N2CCC[C@H]2C(=O)N[C@@H](CCCNC(=N)N)C(N)=O)C(C)C)NC(=O)CNC(=O)[C@H](CC(C)C)NC(=O)CNC(=O)[C@H](CO)NC(=O)[C@H](CCSC)NC(=O)[C@H](CO)NC(=O)CNC1=O` [Chimeric CNP (I)] (H-CFGLKLDRIGSMSGLGCVQQRKESKKPPAKLQPR-NH2; disulfide 1-17; N-terminus assumed) gave a half-life of 14.5 min.
